This is an account of results in patent publication US10561608B2, “Dry powder Vancomycin compositions and associated methods” (SAVARA INC., priority 2011, dated 2020).

Each structure is given as a SMILES string. Where a name gives a salt, the structure may show the parent alone.

Data set [1] in a line: Reconstituted pH of powder. The note with it: effect of leucine concentration. It counts as physicochemical. The source says:
In certain embodiments, the dry powder composition may be reconstituted and the resulting reconstituted powder may have a pH greater than 3.0, preferably greater than 3.5 and most preferably greater than 4.0.
In some embodiments, the delivery efficiency of dry powder vancomycin compositions may be improved through the addition of small amounts of leucine (FIG. 2). […] In addition, the addition of leucine results in powders with more physiologically acceptable pH values. See Table 1 below for the effect of leucine concentration on powder water content, particle size and reconstituted pH.

Data set [2] is described as follows: Single dose plasma pharmacokinetics in healthy volunteers. The note with it: human, in vivo, intravenous infusion 250 mg over 60 min, mean. On the procedure:
FIG. 11 is a graph depicting plasma concentrations as a function of time (semi-log) after a single dose administration of a vancomycin dry powder composition (Lot G-11-026-1) or intravenous administration of vancomycin (inhaled vancomycin dose 16 mg, circle; inhaled vancomycin dose 32 mg, triangle; inhaled vancomycin dose 80 mg, square; Intravenous infusion 250 mg over 60 min, circle with line).
In some embodiments, the dry powder vancomycin compositions of the present disclosure may provide an absolute bioavailability of 40% or more. Absolute bioavailability is calculated as AUC0-inf of vancomycin after the vancomycin composition administration divided by AUC0-inf of vancomycin after intravenous administration and adjusted for dose.
Following a single administration of a dry powder vancomycin composition (Lot […]) in eighteen healthy volunteers, a slow absorption phase followed by an elimination phase were observed. The main pharmacokinetic parameters after single dose administration of the inhaled vancomycin composition and intravenous vancomycin are shown in Table 7. AUC0-t refers to the area under the plasma concentration-time curve to the last measurable time point (24 h) calculated by the linear trapezoidal rule. AUC0-inf refers to the area under the concentration-time curve to infinity. Cmax refers to the maximum blood plasma concentration of vancomycin, and Tmax refers to the amount of time necessary to reach maximum blood plasma levels of vancomycin, and fin, refers to the elimination half-life associated with the terminal slope (Kel) of the semilogarithmic drug concentration-time curve, calculated as 0.693/Kel.

In general, AUC(0-inf) refers to total exposure, with the tail of the curve extrapolated. Higher therefore signals high exposure. Broadly, the Cmax is the maximum level reached in the sampled fluid or tissue. As usually defined, the Tmax is the time from dosing to the highest level. Usually half-life stands for how long it takes for the measured level to halve. A word on the AUC(0-t): it is the area under the concentration-time curve up to a stated or last time point. A high value points to more exposure.

Turning to `CN[C@H](CC(C)C)C(=O)N[C@H]1C(=O)N[C@@H](CC(N)=O)C(=O)N[C@H]2C(=O)N[C@H]3C(=O)N[C@H](C(=O)N[C@H](C(=O)O)c4cc(O)cc(O)c4-c4cc3ccc4O)[C@H](O)c3ccc(c(Cl)c3)Oc3cc2cc(c3OC2O[C@H](CO)[C@@H](O)[C@H](O)[C@H]2O[C@H]2C[C@](C)(N)[C@H](O)[C@H](C)O2)Oc2ccc(cc2Cl)[C@H]1O` (stereo partly drawn) [API, Vancomycin hydrochloride], the “Reconstituted pH” value in data set [1] is 3.0.

`CN[C@H](CC(C)C)C(=O)N[C@H]1C(=O)N[C@@H](CC(N)=O)C(=O)N[C@H]2C(=O)N[C@H]3C(=O)N[C@H](C(=O)N[C@H](C(=O)O)c4cc(O)cc(O)c4-c4cc3ccc4O)[C@H](O)c3ccc(c(Cl)c3)Oc3cc2cc(c3OC2O[C@H](CO)[C@@H](O)[C@H](O)[C@H]2O[C@H]2C[C@](C)(N)[C@H](O)[C@H](C)O2)Oc2ccc(cc2Cl)[C@H]1O` (stereo partly drawn) [IV vancomycin, Vancomycin]: in data set [2], the AUC(0-inf) was 44400 ng·h/mL, the concentration peaked (Cmax) at 10000 ng/mL, the Tmax was determined as 0.92 h and the half-life is 7.23 h. Besides, the AUC(0-t) in data set [2] (t = 24 h) amounted to 41000 ng·h/mL.
